The nature of data set [1]: Mouse pharmacokinetics and brain concentration. The data set is classed as in vivo. As to conditions: C57BL/6 mice, single 20 mg/kg IP injection, plasma. The protocol:
Blood was collected in K2 EDTA tube to obtain a plasma sample (2000g, 5 min at 4 °C). The brain was removed, rinsed with cold saline, dried on filter paper, weighed, and snap frozen by placing on dry ice. Brains were homogenized in 3 volumes of PBS (pH 7.4) by mini-bead-beater before sample extraction for bioanalysis. […] Pharmacokinetic parameters were calculated using WinNonlin V 8.2 statistics software (Pharsight Corporation).

For data set [2], the target named is T1, Cerebroside sulfotransferase (CST) (Homo sapiens, UniProt Q99999).
T1 construct: made in house; host or cells: CHO cells stably expressing GAL3ST1 cDNA; MPER lysate
T1 sequence (Q99999 1-423): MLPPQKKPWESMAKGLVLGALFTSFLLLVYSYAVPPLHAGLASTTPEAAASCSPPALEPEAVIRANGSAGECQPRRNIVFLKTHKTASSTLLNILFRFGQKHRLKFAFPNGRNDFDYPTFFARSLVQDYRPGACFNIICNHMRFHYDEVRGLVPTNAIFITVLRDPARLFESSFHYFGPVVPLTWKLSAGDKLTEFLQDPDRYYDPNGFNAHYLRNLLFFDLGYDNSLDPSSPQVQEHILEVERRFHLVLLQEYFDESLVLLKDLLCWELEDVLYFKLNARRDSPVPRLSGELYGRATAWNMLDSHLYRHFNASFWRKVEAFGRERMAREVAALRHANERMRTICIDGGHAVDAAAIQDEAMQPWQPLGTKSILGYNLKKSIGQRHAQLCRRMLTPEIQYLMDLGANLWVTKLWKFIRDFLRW
Kind of data set: Cerebroside sulfotransferase assay. In kind it is biochemical. The conditions noted are these: lysate of CHO cells expressing GAL3ST1. The protocol:
A 50 µL reaction consisting of 4 µg MPER lysate prepared from CHO cells stably expressing GAL3ST1 cDNA construct (made by BioMarin), 3 µM N-dodecanoyl-NBD-galactosylceramide […] 10 µM PAPS (Sigma) added as substrate (in DMSO/Tween 80), reaction buffer (100 mM Tris/HCl (pH 7.0), 2.5 mM ATP, 20 mM MgCl2), and test compound. The reaction was incubated at 37 ℃ for 2 h then stopped with 100 µL of 3:1 methanol:acetonitrile (containing 500 nM NBD-C6-OH ceramide as an IS). After 1 h shaking, 150 µL 1:2 H2O:ACN was added, mixed, and centrifuged 4000 rpm for 30 min at RT. Supernatant was transferred for LC–MS analysis using the same conditions used for the CGT cellular assay.

Data set [3] concerns GalCer and sulfatide levels. Nature of the data set: PND3 wild-type mouse repeat dose study: LC-MS of GalCer and sulfatide in brain and sciatic nerve. The conditions noted are these: wild-type mice. In kind it is in vivo. On the procedure: Animals were euthanized by exsanguinations under deep anesthesia, the brain and sciatic nerve were removed, rinsed in cold saline, dried, and snap frozen for lipid quantification.
Whole brain was homogenized in 3 volumes H2O (v/w) and further diluted as necessary in H2O. Given the small size, the sciatic nerve weight was recorded and homogenized in a larger fixed volume. 25 µL of diluted homogenate was added to 35 µL DMSO, 200 µL of methanol, and 325 µL acetone/methanol (50/50) and vortexed approximately 30 min. Next, 150 µL water and 300 µL water/methanol (13/87) were added before centrifuging for 5 min at RT at 14,000 rpm. […] supernatant was transferred onto a pre-conditioned C18-SPE cartridge, washed with 2 mL methanol/acetone/water (67/23/10), and eluted with 1.5 mL acetone/methanol (90/10). The eluate was dried before reconstituting with 50 µL DMSO (including N-C16:0-CD3-Glucosylceramide, IS Matreya) and 200 ACN. 3 µL of suspension was injected into LC–MS/MS for analysis. GalCers were separated from isobaric GluCers by Halo-Hilic (4.6 × 150 mm, 2.7 µm) column with a mobile phase of 95/2.5/2.5 ACN/MeOH/H2O (with 0.5 FA + 5 mM NH4OAc) 100% for 9.5 min at 50 °C and a 0.50 mL/min flow rate. Non-hydroxy-GalCer and 2-hydroxy-GalCer were detected using MRM on an LC–MS/MS (Agilent 6410) in positive ESI mode. Purified non-hydroxy-GalCer (Kerasin, Matreya) or 2-hydroxy-GalCer (Phrenosin, Matreya) were used as reference standards. All non-hydroxy-GalCer or 2-hydroxy-GalCer species identified in the reference standards were summed, normalized to the IS, and reported as percentage of vehicle control (Fig. 2B,C). In Supplementary Figure S1, individual acyl chains were identified, normalized to the IS, and plotted as percentage of vehicle control.
Previously diluted brain homogenate was serially diluted (10 µL into 90 µL and then 20 µL into 80 µL) in ACN/H2O (v/v 1:1) before being added to 300 µL ACN with IS (N-C18:0-CD3-sulfatide, Matreya). […] Non-hydroxy-sulfatide and 2-hydroxy-sulfatide were detected using MRM on a UPLC-MS/MS-22 (Triple Quad 6500) in positive ESI mode. […]

Data set [4] concerns Sphingomyelin synthase (SMS). Nature of the data set: Sphingomyelin synthase assay. The conditions noted are these: MDCK cell lysate. The data set is classed as biochemical. On the procedure:
100 µL assay buffer (50 mM Tris buffer pH 7.5 containing 25 mM KCl, 0.5 mM EDTA, 10 µM NBD-C6 ceramide, 100 µM DOPC, and 0.01% Tween 80), 60 µg MDCK cell lysate, and serial diluted compounds were incubated at 37 ℃ for 1 h. The reaction was terminated and prepared for LC–MS using the same protocol as the GCS assay, however, a NBD-C6-sphingomyelin (Avanti) reference standard was used to quantify the sphingomyelin synthesis.

In a further data set the test system is wild-type mice. Kind of data set: Low dose treatment of wild-type mice PND3 to PND70: vacuolation. In kind it is in vivo, mouse. The conditions noted are these: PND3 to PND70, 0.15 mg/kg.
Another data set has as its target T2, CB1 receptor (Homo sapiens, UniProt P21554).
T2 construct: purchased Eurofin Cerep ITEM G012
Kind of data set: CB1R activity (Eurofin Cerep). The data set is classed as cell-based. On the procedure: CB1R activity was evaluated at Eurofin Cerep, Le Bois l'Evêque, France ITEM […].

The test system of a further data set is Twitcher mice. Nature of the data set: Twitcher mouse brain immunostaining and cytokine analysis. The data set is classed as in vivo. As to conditions: 0.15 mg/kg IP three times per week, PND3 to PND28.

A word on the AUC(0-inf): it is the area under the concentration-time curve extrapolated to infinity. A higher AUC(0-inf) goes with high exposure. In general, AUC(0-t) refers to the area under the concentration-time curve up to a stated or last time point. A higher AUC(0-t) goes with high exposure. Usually Cmax stands for the highest concentration seen after dosing. As a reminder, the Tmax is the time from dosing to the highest level. By IC50 is commonly meant the concentration that gives 50% inhibition.

Molecules are shown by their SMILES. Where two headings read alike, the source gives them in different places. Some results are limits rather than exact numbers.

T2 sequence (P21554 whole entry): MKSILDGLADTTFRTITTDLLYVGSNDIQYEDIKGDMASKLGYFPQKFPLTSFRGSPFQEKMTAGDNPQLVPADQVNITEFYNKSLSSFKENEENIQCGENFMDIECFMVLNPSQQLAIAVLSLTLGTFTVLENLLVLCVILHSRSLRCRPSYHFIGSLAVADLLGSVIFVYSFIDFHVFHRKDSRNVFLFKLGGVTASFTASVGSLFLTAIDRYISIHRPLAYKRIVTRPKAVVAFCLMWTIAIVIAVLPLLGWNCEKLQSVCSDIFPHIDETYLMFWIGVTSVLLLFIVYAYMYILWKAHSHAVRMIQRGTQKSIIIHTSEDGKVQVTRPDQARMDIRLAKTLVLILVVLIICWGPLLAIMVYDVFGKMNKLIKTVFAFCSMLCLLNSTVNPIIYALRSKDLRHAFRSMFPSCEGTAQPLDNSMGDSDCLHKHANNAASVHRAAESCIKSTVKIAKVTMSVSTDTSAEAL
Experimental for Twitcher mice: Five sections from a one in four series of sagittal brain sections from each mouse were stained on slides using a modified immunofluorescence protocol for the following antibodies—astrocytes (rabbit anti-GFAP, 1:1000, DAKO Z0334), microglia (rat anti-mouse CD68, 1:400, Bio-Rad MCA1957), and myelin basic protein (MBP) (rat anti-MBP, 1:500, Merck Millipore MAB386). Briefly, 40 µm sagittal sections were mounted on Superfrost Plus slides (Fisher Scientific), air-dried for 30 min, and blocked in 15% normal goat serum solution (Vector Labs, S-1000) in 2% TBS-T (1 × Tris Buffered Saline, pH 7.6 with 2% Triton-X100, Fisher Scientific) for 1 h. Slides were then incubated in primary antibody in 10% serum solution in 2% TBS-T for 2 h. Slides were washed three times in 1×TBS and incubated in fluorescent Alexa-Fluor labelled IgG secondary antibodies (Alexa-Fluor goat anti-rabbit 488, Invitrogen A-11008 and goat anti-rat 546, Invitrogen A-11081) in 10% serum solution in 2% TBS-T for 2 h, washed three times in 1×TBS, and incubated in a 1 × solution of TrueBlack lipofuscin autofluorescence quencher (Biotium, Fremont, CA, #23,007) in 70% ethanol for 2 min before rinsing in 1×TBS. Slides were coverslipped in fluoromount-G mounting medium with DAPI (Southern Biotech). To analyze the glial activation (GFAP-positive astrocytes + CD68-positive microglia) as well as MBP staining of punctate bodies in the cerebellar white matter, a semiautomated thresholding image analysis method was used with Image-Pro Premier software (Media Cybernetics). Briefly, this involved the collection of slide-scanned images at 5 × magnification for a one in four series of 3 sections per animal followed by demarcation of all regions (in this case the white matter of the cerebellum) of interest while maintaining the lamp intensity, video camera setup, and calibration constant throughout image capturing. Images were subsequently analyzed using Image-Pro Premier using an appropriate threshold that selected the foreground immunoreactivity above background. This threshold was then applied as a constant to all subsequent images analyzed per batch of animals and reagent used to determine the specific area of immunoreactivity for each antigen. Image densitometry for the average pixel luminance data was also gathered for MBP staining of the cerebellar white matter due to the higher density of staining. Slide-scanned images at 5 × magnification were collected for a one in forty-eight series of sections per animal followed by collecting the mean luminance data across all pixels from the regions of interest delineated using Image-Pro Premier.
Cytokine/chemokine analyses were performed on the brains from the same animals used for immunofluorescent imaging. […]

As for `C[C@H]1N(c2ccc(Br)cc2)C(=O)N(c2ccc(Br)cc2)C1(O)c1cccc(OC(F)(F)F)c1` (stereo partly shown) [S202], in data set [1], the total exposure AUC(0-inf) was 83800 ng·h/mL, the AUC(0-t) worked out at 59400 ng·h/mL, the concentration peaked (Cmax) at 8500 ng/mL and the time of peak concentration (Tmax) turned out to be 1 h. Besides, in data set [1] (read-out: Terminal t1/2 (converted)), the half-life was 12.2 h. The compound further registered an IC50 in data set [2] above 50000 nM. In addition, the “GalCer synthesis in the brains” value in data set [3] (higher doses (> 1.5 mg/kg)) is “reduced synthesis of both non-hydroxy-GalCer and 2-hydroxy-GalCer”. Further, the “2-hydroxy-GalCer levels in the brains” value in data set [3] (lower doses) was “consistently increase”. Also, in data set [3] (lower doses (0.015 to 0.5 mg/kg)), the “non-hydroxy-GalCer levels in the brains” value is “greatly decreased”. The compound further yielded an IC50 in data set [4] above 50000 nM. Further, in the data set on wild-type mice, the “vacuolation in brain, spine and sciatic nerve” value is “vacuolation was observed in a similar pattern, but was much less severe”. Also, on CB1 receptor (S202 relative to S221), the “potency as a CB1 inverse agonist, change through optimization of S221” value is “reduced tenfold”. Also, at CB1 receptor (antagonist mode, read-out: CB1R antagonist IC50), the half-maximal inhibitory concentration (IC50) was found to be 2900 nM. The concentration for half-maximal inhibition (IC50) at CB1 receptor (inverse agonist mode, read-out: CB1R inverse agonist IC50) came out at 2100 nM. Also, the half-inhibitory concentration (IC50) at CB1 receptor (read-out: CB1 receptor IC50) is 3000 nM. In the data set with Twitcher mice, the “CD68-positive macrophages in brain sections” value is “trend toward reduction”, the “GROA level in brain homogenates” value was “reduced the levels”, the “MCP-1 level in brain homogenates” value was “reduced the levels” and the “marker of astrocytosis (GFAP) in brain sections” value is reported as “trend toward reduction”.

Values taken from article PMC8280112, “Substrate reduction therapy for Krabbe disease and metachromatic leukodystrophy using a novel ceramide galactosyltransferase inhibitor” (Scientific Reports, 2021).
